The test system of series [1] is Staphylococcus aureus ATCC 25923. Particulars: ATCC 25923, 24 h.
For series [2], the system named is MDR P. aeruginosa clinical isolate No.6. Conditions: MDR clinical isolate No.6, 24 h.
In series [3] the test system is all Gram-negative strains. The series is described as follows: Mean MIC and therapeutic index, Gram-negative strains. Conditions: 7 Gram-negative strains of Table 3. Format: cell-based.
For another series, the system named is P. aeruginosa ATCC 27853. The series is described as follows: Transmission electron microscopy (TEM). It counts as cell-based, Pseudomonas aeruginosa. Particulars: 0.5 × MIC, 2 h; result in words. Here is the method:
The bacterial cells were treated and prepared with the same conditions as previously described in SEM[8]. The bacterial pellets were washed twice with PBS and post-fixed with 1% osmium tetroxide in PBS for 2 h, after overnight fixing with 2.5% glutaraldehyde. The fixed bacterial cells were washed twice with PBS, followed by dehydration for 15 min in a graded ethanol series (50%, 70%, 90%, and 100%). After placing in absolute acetone for 20 min, these samples were transferred to a mixture of absolute acetone and epoxy resin (1:1 and 1:3) for 1 h each, followed by transfer to pure epoxy resin and held overnight. Ultrathin sections were cut with a glass knife on an ultramicrotome, and post-stained with uranyl acetate and lead citrate. Specimens were observed using a transmission electron microscope (Hitachi HT7700, Japan).

Another series relates to human TLR4 (hTLR4). Briefly: LPS-mediated TLR4 activation, HEK-Blue hTLR4 SEAP reporter. Format: cell-based. Particulars: 250 ng/ml LPS of P. aeruginosa serotype 10, 0.98-250 µg/ml peptide, 16 h; result in words. Here is the method:
Stimulation with LPS activates NF-kB and AP-1, inducing the production of SEAP. Opposing this, the peptide can interact with LPS and inhibit TLR4 signal transduction, and so decrease production of SEAP. The hydrolysis of substrate by SEAP produces a purple/blue color.
Briefly, HEK-Blue hTLR4 cells (3 × 10^4 cells/well) were seeded in 96-well plates and incubated at 37 °C in an air atmosphere containing 5% CO2 for 24 h. These cells were further incubated with 250 ng/ml LPS of P. aeruginosa serotype 10 (Sigma) and different concentrations of PA-13 (0.98-250 µg/ml) for 16 h. After incubation, supernatants were collected and incubated with QUANTI-Blue™ (InvivoGen). The absorbance of SEAP was monitored at 620 nm. The results were calculated from at least three independent experiments.

Series [4] relates to MDR P. aeruginosa clinical isolate No.11. Conditions: MDR clinical isolate No.11, 24 h.
For series [5], the system named is human red blood cells (hRBCs). The series is described as follows: Hemolytic activity, hemoglobin release. Here is the method:
Hemolytic activity of the peptides was assayed against human red blood cells (hRBCs) by measuring the amount of hemoglobin released after treatment. The hRBCs, freshly collected from a healthy volunteer in polycarbonate tubes containing heparin, were washed three times in sterile phosphate buffered saline (PBS) and centrifuged at 2,000 × g for 5 min or until the supernatant became clear. […] After 1 h of incubation at 37 °C, intact hRBCs were pelleted by centrifugation at 2,000 × g for 10 min. The supernatant was transferred to a new 96-well plate and the release of hemoglobin was monitored by measurement of absorbance at 405 nm using a Multiskan FC microplate reader. The hRBCs in PBS only (ODBlank) and in 0.1% Triton X-100 (ODTriton X-100) were employed as negative (0% hemolysis) and positive (100% hemolysis) controls, respectively. The percentage of hemolysis was calculated according to the following equation: %Hemolysis=(ODSample−ABlank)/(ODTritonX−100−ODBlank)×100

The subject of series [6] is Listeria monocytogenes 10403 s. Particulars: 10403 s, 24 h.

Structures are written as SMILES. Converted amounts (≈) assume the structure as drawn. Where a SMILES comes first, the peptide text is derived from it.

As for `CC[C@H](C)[C@H](NC(=O)[C@H](CCCNC(=N)N)NC(=O)[C@H](CCCCN)NC(=O)[C@H](C)NC(=O)[C@@H](NC(=O)[C@@H](N)CCCCN)[C@@H](C)CC)C(=O)N[C@@H](Cc1c[nH]c2ccccc12)C(=O)N[C@@H](CCCCN)C(=O)N[C@H](C(=O)N[C@@H](CC(C)C)C(=O)N[C@@H](CCCNC(=N)N)C(=O)N[C@@H](CCCNC(=N)N)C(=O)N[C@@H](CCCNC(=N)N)C(N)=O)[C@@H](C)CC` [PA-13] (H-KIAKRIWKILRRR-NH2; N-terminus assumed), the MIC in series [1] was 62.5 µg/mL (≈ 36 µM); in series [2], 7.81 µg/mL (≈ 4.5 µM); in series [4] it was 7.81 µg/mL (≈ 4.5 µM); in series [6] it was 3.91 µg/mL (≈ 2.25 µM). Besides, in series [3], the “GM (Gr.− strains): geometric mean of MIC values from all Gram-negative strains” value was determined as 15.90 µg/mL. Besides, the “membrane integrity and intracellular alterations (TEM)” value with P. aeruginosa ATCC 27853 is “disrupted cell membrane with visible pores and leakage of cellular contents”. For the same molecule, in the series with human TLR4 (hTLR4), the “inhibition of LPS-mediated TLR4 activation” value is given as “dose-dependent inhibition”. Also, the “hemolytic activity at the MIC” value in series [5] is recorded as “less than 2%”.

The values above are taken from publication PMC7272617 (Scientific Reports, 2020).
